Results taken from patent publication US8486991B2, “Enantiomerically pure phosphoindoles as HIV inhibitors” (Idenix Pharmaceuticals, Inc., priority 2006, dated 2013).
Values joined by “and” are separate entries in the source; they are usually repeats but may differ in a detail not shown here. Identical values can stand only once. Like-named read-outs stand apart in the source and are kept apart here.

Experiments:
HIV-2 ROD = HIV-2 ROD WT in H9 cell assay; type: cell-based
Method: The susceptibility of HIV type 2 ROD in H9 cells to Compound I and Compound III was determined against zidovudine (AZT) as a control.

CYP3A4 = CYP3A4 (Homo sapiens, UniProt P08684); assay: Recombinant CYP450 inhibition, fluorometric, CYP3A4; type: in vitro ADME; parameters: from tissue; host or cells: pooled human liver microsomes
Method: (§1) Compounds were assayed using recombinant human microsomal proteins with fluorometric substrates. Signal was measured with a Fusion plate reader utilizing the appropriate excitation and emission wavelength set to detect the specific metabolite: […]

[1] = system: HIV-1 BH10 K103N mutant virus; assay: microbe, parasite or virus in culture; type: cell-based; conditions: for Fold Change, K103N: Table 7; for EC50: unit inferred
[2] = Plasma protein binding by equilibrium dialysis, dog; type: in vitro ADME; conditions: for fraction unbound: dog, read-out: Percentage Plasma Protein Binding, Dogs
Method: (§2) The in vitro plasma protein binding of compound I and compound III in rat, dog, monkey and human plasma was determined by equilibrium dialysis. Protein binding was assessed by equilibrium dialysis using rat, dog, monkey and human plasma. Samples were assayed by HPLC with LC-MS/MS detection. Plasma protein binding was high (>99%) for all species and for both compounds.

[3] = system: EFV resistant, NNRTI resistant, NRTI and PI mutant HIV-1 viruses; type: cell-based; conditions: for activity against EFV resistant viruses compared with EFV: including double and triple mutants
[4] = In vivo pharmacokinetics, dogs; conditions: both sexes, Dog; for Tmax: mean; for bioavailability: read-out: BA (absolute oral bioavailability)
Method: All animals received a single oral or intravenous dose of compound in either polyethylene glycol 400 (PEG400) or a mixture of 10% ethanol (EtOH), 10% dimethylacetamine (DMA) and 80% PEG400 at the indicated dose level. Plasma concentration data were acquired using sensitive and specific LC-MS/MS methods. Pharmacokinetic data from the toxicity study included aspects of gender differences, variability and exposure.
Blood samples (1.5-2.5 mL) were collected in heparinized tubes at 0 (pre-dose), 5 (IV only), 10, 20, 30 min, 1, 2, 4, 6, 8, 12 (PO only) and 24 hr after dosing. Plasma was separated and stored at −70° C. until analysis.
Concentrations of unlabeled compound I and compound III within plasma samples and excreta from rat, dog and monkey PK studies were identified through high performance liquid chromatographic (HPLC) methods that incorporated tandem mass spectrometric detection (LC-MS/MS).
The absolute oral bioavailability was determined in pharmacokinetic by comparison of AUC values of parent compound following single intravenous and oral doses of in rats (compound III only), dogs and monkeys.

[5] = Plasma protein binding by equilibrium dialysis, human; type: in vitro ADME
Method: as §2

CYP2D6 = CYP2D6 (Homo sapiens, UniProt P10635); assay: Recombinant CYP450 inhibition, fluorometric, CYP2D6; type: in vitro ADME; parameters: from tissue; host or cells: pooled human liver microsomes; conditions: read-out: percentage of inhibition at the highest concentration tested, CYP2D6
Method: as §1

MT-4 cells = assay: Cellular cytotoxicity, 4 days, MTS, MT-4; conditions: for CC50: read-out: Average CC50 Values ± Standard Deviation, MT-4, Table 21, 4 days, MTS
Method: Following drug exposure for 4 days, cell viability was measured by MTS staining and CC50 values were determined. Drug concentrations ranged from 0.005 μM to 100 μM.
The preceding data, allows us to calculate selectivity index (SI) values, based on the ratio of CC50 to EC50 in MT-4 cells (the standard assay used in this work).

CYP2C8 = biological target: T1, CYP2C8 (Homo sapiens, UniProt P10632); assay: Human liver microsomal CYP450 inhibition, CYP2C8; conditions: for Type of inhibition, CYP2C8 (Paclitaxel): human liver microsomes; for IC50: human, pooled human liver microsomes, probe paclitaxel
T1 sequence (P10632 1-490): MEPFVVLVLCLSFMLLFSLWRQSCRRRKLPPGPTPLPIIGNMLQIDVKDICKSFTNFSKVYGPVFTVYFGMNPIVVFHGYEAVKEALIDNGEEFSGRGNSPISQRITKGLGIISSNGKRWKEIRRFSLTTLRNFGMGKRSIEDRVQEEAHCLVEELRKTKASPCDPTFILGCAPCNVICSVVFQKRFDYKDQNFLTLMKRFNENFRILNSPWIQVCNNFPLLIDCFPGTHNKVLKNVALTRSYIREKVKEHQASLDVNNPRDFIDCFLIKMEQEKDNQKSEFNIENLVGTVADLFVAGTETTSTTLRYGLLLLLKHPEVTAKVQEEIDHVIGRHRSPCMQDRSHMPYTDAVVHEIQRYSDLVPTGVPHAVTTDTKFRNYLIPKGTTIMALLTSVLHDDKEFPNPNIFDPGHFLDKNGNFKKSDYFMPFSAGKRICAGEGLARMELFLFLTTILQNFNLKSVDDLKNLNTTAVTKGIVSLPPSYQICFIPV
Method: In addition, the type of inhibition was also evaluated.
Enzyme kinetic studies of cytochrome P450 isozyme inhibition were conducted using human liver microsomes.
Probe substrate for 2C8 was paclitaxel, probe substrate for 2C9 was diclofenac and for 3A4 probe substrates were midazolam and testosterone.

CYP2B6 = biological target: T2, CYP2B6 (Homo sapiens, UniProt P20813); assay: Recombinant CYP450 inhibition, fluorometric, CYP2B6; type: in vitro ADME; parameters: from tissue; host or cells: pooled human liver microsomes; conditions: read-out: percentage of inhibition at the highest concentration tested, CYP2B6
T2 sequence (P20813 1-491): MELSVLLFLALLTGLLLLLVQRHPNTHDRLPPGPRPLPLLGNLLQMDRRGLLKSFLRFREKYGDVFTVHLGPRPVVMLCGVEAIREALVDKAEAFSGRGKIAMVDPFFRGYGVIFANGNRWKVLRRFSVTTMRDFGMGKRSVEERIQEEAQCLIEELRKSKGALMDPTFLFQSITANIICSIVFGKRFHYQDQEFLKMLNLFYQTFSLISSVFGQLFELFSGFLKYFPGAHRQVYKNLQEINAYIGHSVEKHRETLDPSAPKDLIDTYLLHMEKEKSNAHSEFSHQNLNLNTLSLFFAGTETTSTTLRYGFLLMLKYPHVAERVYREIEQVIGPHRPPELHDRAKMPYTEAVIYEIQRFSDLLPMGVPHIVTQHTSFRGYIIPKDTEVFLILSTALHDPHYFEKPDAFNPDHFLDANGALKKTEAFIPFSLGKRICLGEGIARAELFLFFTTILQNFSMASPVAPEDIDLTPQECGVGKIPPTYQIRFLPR
Method: as §1

[6] = In vitro half-life in liver microsomes, monkey; type: in vitro ADME; conditions: up to one hour, n=1
Method: In vitro metabolism was assessed using liver microsomes for all species. Compounds were incubated at 1 μM with liver microsomes for up to one hour. Reported half-lives greater than the total incubation time are extrapolated values. Extracts were assayed for disappearance of parent compound by LC-MS/MS detection.
Data represents one independent experiment conducted.

[7] = Table 18, highest concentration assayed 1.25 μM
[8] = plasma, 20 mg/kg PO-Fed, 1M, 1F

CYP3A4, sequence (P08684 whole entry, the tested form may be a part): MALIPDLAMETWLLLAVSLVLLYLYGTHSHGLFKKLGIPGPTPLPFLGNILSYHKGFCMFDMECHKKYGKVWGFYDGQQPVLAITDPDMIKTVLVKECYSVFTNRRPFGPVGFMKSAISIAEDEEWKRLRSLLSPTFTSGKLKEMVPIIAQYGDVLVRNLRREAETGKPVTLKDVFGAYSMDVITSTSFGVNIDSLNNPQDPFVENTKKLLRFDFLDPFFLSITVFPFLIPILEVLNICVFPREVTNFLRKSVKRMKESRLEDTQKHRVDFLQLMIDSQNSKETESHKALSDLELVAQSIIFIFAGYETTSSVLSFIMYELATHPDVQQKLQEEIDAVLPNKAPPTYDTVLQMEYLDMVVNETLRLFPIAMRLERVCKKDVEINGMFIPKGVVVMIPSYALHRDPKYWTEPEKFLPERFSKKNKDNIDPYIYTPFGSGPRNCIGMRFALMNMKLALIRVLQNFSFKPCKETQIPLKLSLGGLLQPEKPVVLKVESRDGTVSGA
CYP2D6, sequence (P10635 whole entry): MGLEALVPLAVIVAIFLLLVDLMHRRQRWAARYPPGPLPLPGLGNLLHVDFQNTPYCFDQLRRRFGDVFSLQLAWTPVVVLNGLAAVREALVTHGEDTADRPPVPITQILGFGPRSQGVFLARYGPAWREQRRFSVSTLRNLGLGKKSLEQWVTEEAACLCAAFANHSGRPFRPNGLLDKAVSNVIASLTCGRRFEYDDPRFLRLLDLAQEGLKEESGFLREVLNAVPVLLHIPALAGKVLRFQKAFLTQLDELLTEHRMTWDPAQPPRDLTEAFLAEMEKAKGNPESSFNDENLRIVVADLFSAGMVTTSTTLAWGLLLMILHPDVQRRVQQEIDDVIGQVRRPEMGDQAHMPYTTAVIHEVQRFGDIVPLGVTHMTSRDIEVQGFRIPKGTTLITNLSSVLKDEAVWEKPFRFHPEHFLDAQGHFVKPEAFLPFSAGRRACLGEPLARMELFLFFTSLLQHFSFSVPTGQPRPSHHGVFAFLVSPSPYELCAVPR

CO[P@](=O)(c1cc(C)cc(/C=C/C#N)c1)c1c(C(N)=O)[nH]c2ccc(Cl)cc12 [Compound III, (2-Carbamoyl-5-chloro-1H-indol-3-yl)-[3-((E)-2-cyano-vinyl)-5-methyl-phenyl]-(R)-phosphinic acid methyl ester]
EC50 (HIV-2 ROD; Human immunodeficiency virus 2, H9, Table 18, highest concentration assayed 1.25 μM, read-out: EC50 Values): > 1250 nM | EC50 Values (HIV-2 ROD; [7]): failed to suppress HIV-2 ROD replication | IC50 (CYP3A4; recombinant, highest concentration tested 10 μM, read-out: IC50, CYP3A4): 2860 ± 780 nM | Fold Change, K103N [1]: 1.2 ± 0.4 fold | Percentage Plasma Protein Binding, Dogs [2]: 99.4% | fraction unbound ([2]; dog plasma): < 0.01 | activity against sub-panel of mutants bearing NRTI and PI mutations [3]: highly active | activity against EFV resistant viruses compared with EFV [3]: superior to EFV | Tmax ([4]; plasma, 5 mg/kg PO-Fed, M+F): 90 min | bioavailability ([4]; plasma, 5 mg/kg PO-Fed, M+F, IV 1 mg/kg): 4% | Tmax [4, 8]: 132 min | bioavailability [4, 8]: 23% | Percentage Plasma Protein Binding, Humans [5]: 99.9% | inhibition at 10 µM (CYP2D6; recombinant human CYP2D6 microsomal protein): 15.2% | Selectivity Index (SI), CC50/EC50 in MT-4 cells (MT-4 cells): > 22,000 and > 18,000 | CC50 (MT-4 cells): 27300 ± 12900 nM | Ki (CYP2C8): 660 nM | Type of inhibition, CYP2C8 (Paclitaxel) (CYP2C8): competitive inhibition | Type of inhibition, CYP2C8 (Paclitaxel) (CYP2C8; listed as compound III): competitive inhibition | IC50 (CYP2C8): < 10000 nM | inhibition at 20 µM (CYP2B6; recombinant human CYP2B6 microsomal protein): 22.9% | half-life at 1 μM ([6]; liver microsomes): 12.6 min

CO[P@](=O)(c1cc(C)cc(/C=C/C#N)c1)c1c(C(N)=O)[nH]c2ccc(Cl)c(F)c12 [Compound I, (2-Carbamoyl-5-chloro-4-fluoro-1H-indol-3-yl)-[3-((E)-2-cyano-vinyl)-5-methyl-phenyl]-(R)-phosphinic acid methyl ester]
EC50 (HIV-2 ROD; Human immunodeficiency virus 2, H9, read-out: EC50 Values): > 1250 nM | EC50 Values (HIV-2 ROD; [7]): failed to suppress HIV-2 ROD replication | IC50 (CYP3A4): 1460 ± 390 nM | EC50 ([1]; Human immunodeficiency virus 1, MT4, read-out: EC50, K103N, Example 16 comparative tables): 0.6 ± 0.2 nM | Fold Change, K103N [1]: 0.9 ± 0.4 fold | EC50 ([1]; read-out: EC50, K103N, Example 16 comparative tables): 0.9 nM | Percentage Plasma Protein Binding, Dogs [2]: 99.0% | fraction unbound ([2]; plasma): < 0.01 | activity against sub-panel of mutants bearing NRTI and PI mutations [3]: highly active | potency relative to Compound III against EFV resistant viruses with double and triple mutants [3]: 2-3 | activity against EFV resistant viruses compared with EFV [3]: superior to EFV | Tmax ([4]; in vivo, 5 mg/kg PO-Fed, M+F): 18 min | bioavailability ([4]; in vivo, 5 mg/kg PO-Fed, M+F, IV 1 mg/kg): 9% | Percentage Plasma Protein Binding, Humans [5]: 99.8% | inhibition at 10 µM (CYP2D6; recombinant enzyme): 11.2% | Selectivity Index (SI), CC50/EC50 in MT-4 cells (MT-4 cells): > 18,000 and > 22,000 | CC50 (MT-4 cells): 18600 ± 3100 nM | Ki (CYP2C8): 1100 nM | Type of inhibition, CYP2C8 (Paclitaxel) (CYP2C8): competitive inhibition | Type of inhibition, CYP2C8 (Paclitaxel) (CYP2C8; listed as compound I): competitive inhibition | IC50 (CYP2C8): < 10000 nM | inhibition at 20 µM (CYP2B6; recombinant enzyme): 21.6% | half-life at 1 μM ([6]; microsomes): 15.4 min
